Data on 24 molecules can be found in article PMC10114720.

The nature of data set [1]: monoprotic acid or base: log K of the neutral species extrapolated from the linear regression of D on the neutral fraction (from pKa and pH; the paper's eq. for monoprotic IOCs), the slope giving K of the neutral species; replicates column holds the table's 95% confidence limits. PDMS sheets cleaned by Soxhlet with ethyl acetate; batch shaking method with a mixture of all chemicals at several PDMS-mass to water-volume ratios and spiked levels; vials shaken on an orbital shaker at room temperature in the dark, sampled at two equilibration times; PDMS extracts and water quantified by LC-HRMS (Orbitrap); D from the slope of C_PDMS on C_w or their ratio. As to conditions: PDMS (polydimethylsiloxane silicone sheet); phosphate buffer at three target pH values (the paper's methods).

The nature of data set [2]: PDMS sheets cleaned by Soxhlet with ethyl acetate; batch shaking method with a mixture of all chemicals at several PDMS-mass to water-volume ratios and spiked levels; vials shaken on an orbital shaker at room temperature in the dark, sampled at two equilibration times; PDMS extracts and water quantified by LC-HRMS (Orbitrap); D from the slope of C_PDMS on C_w or their ratio; value is the mean over that pH's experiments (individual experiments in the SI's concentrations table), sd is the table's stdev. Conditions: PDMS (polydimethylsiloxane silicone sheet), phosphate buffer at three target pH values (the paper's methods).

Structures are written as SMILES.

On to `CO/C=C(/C(=O)O)c1ccccc1Oc1cc(Oc2ccccc2C#N)ncn1`, for which the “log K PDMS/w (neutral species)” value in data set [1] is 1.355 log units; D and K as the pape. In addition, the “log D PDMS/w (apparent distribution ratio at the stated pH)” value in data set [2] (pH 3) was 1.162 log units; D and K as the pape; in data set [2] (pH 7.4), -0.4633 log units; D and K as the pape; in data set [2] (pH 11.5), -0.695 log units; D and K as the pape.

Consider `Clc1cccc(Cl)c1NC1=NCCN1`, for which the “log K PDMS/w (neutral species)” value in data set [1] was 2.618 log units; D and K as the pape. The “log D PDMS/w (apparent distribution ratio at the stated pH)” value is 0.07 log units; D and K as the pape in data set [2] (pH 3); 1.56 log units; D and K as the pape in data set [2] (pH 7.4).

As to `CCOC(=O)NCCOc1ccc(Oc2ccccc2)cc1`, in data set [1], the “log K PDMS/w (neutral species)” value is 3.121 log units; D and K as the pape. Also, the “log D PDMS/w (apparent distribution ratio at the stated pH)” value was 3.077 log units; D and K as the pape in data set [2] (pH 3); 2.994 log units; D and K as the pape in data set [2] (pH 7.4); 2.967 log units; D and K as the pape in data set [2] (pH 11.5).

As to `O=C(Nc1ccc(Cl)c(Cl)c1)c1cc(Cl)cc(Cl)c1O`, in data set [1], the “log K PDMS/w (neutral species)” value was 3.883 log units; D and K as the pape.

On to `CC(C)C(=O)Nc1ccc([N+](=O)[O-])c(C(F)(F)F)c1`, for which, in data set [1], the “log K PDMS/w (neutral species)” value is 1.525 log units; D and K as the pape. Moreover, the “log D PDMS/w (apparent distribution ratio at the stated pH)” value in data set [2] (pH 3) was 1.476 log units; D and K as the pape; in data set [2] (pH 7.4), 1.423 log units; D and K as the pape.

In the case of `CC(C)(Oc1ccc(CCNC(=O)c2ccc(Cl)cc2)cc1)C(=O)O`, the “log K PDMS/w (neutral species)” value in data set [1] is 1.311 log units; D and K as the pape. Besides, the “log D PDMS/w (apparent distribution ratio at the stated pH)” value is 1.054 log units; D and K as the pape in data set [2] (pH 3); -0.64 log units; D and K as the pape in data set [2] (pH 7.4).

For `COCCc1ccc(OCC(O)CNC(C)C)cc1` (stereo not shown), the “log D PDMS/w (apparent distribution ratio at the stated pH)” value in data set [2] (pH 3) is 0.28 log units; D and K as the pape; in data set [2] (pH 7.4), -0.003333 log units; D and K as the pape.

On to `CNC(=O)Oc1cccc2ccccc12`, for which the “log K PDMS/w (neutral species)” value in data set [1] is 1.106 log units; D and K as the pape.

In the case of `c1ccc2c(c1)[nH]c1ccncc12`, the “log K PDMS/w (neutral species)” value in data set [1] was 2.458 log units; D and K as the pape. Besides, the “log D PDMS/w (apparent distribution ratio at the stated pH)” value in data set [2] (pH 3) is -0.445 log units; D and K as the pape; in data set [2] (pH 7.4), 2.315 log units; D and K as the pape; in data set [2] (pH 11.5), 2.443 log units; D and K as the pape.

Take `CCOC(=O)c1ccc(N(C)C)cc1`: the “log K PDMS/w (neutral species)” value in data set [1] was 2.315 log units; D and K as the pape. Further, the “log D PDMS/w (apparent distribution ratio at the stated pH)” value in data set [2] (pH 3) was 2.216 log units; D and K as the pape; in data set [2] (pH 7.4) it was 2.266 log units; D and K as the pape; in data set [2] (pH 11.5), 2.184 log units; D and K as the pape.

As to `CCN(CC)c1ccc2c(C)cc(=O)oc2c1`, the “log K PDMS/w (neutral species)” value in data set [1] was 2.913 log units; D and K as the pape. Moreover, the “log D PDMS/w (apparent distribution ratio at the stated pH)” value was 2.535 log units; D and K as the pape in data set [2] (pH 3); 2.797 log units; D and K as the pape in data set [2] (pH 7.4); 2.809 log units; D and K as the pape in data set [2] (pH 11.5).

Take `Clc1ccc2n[nH]nc2c1`: the “log K PDMS/w (neutral species)” value in data set [1] is 1.144 log units; D and K as the pape. Besides, the “log D PDMS/w (apparent distribution ratio at the stated pH)” value in data set [2] (pH 3) is 0.7386 log units; D and K as the pape; in data set [2] (pH 7.4), 0.79 log units; D and K as the pape; in data set [2] (pH 11.5), 0.065 log units; D and K as the pape.

With `CC(CCc1ccccc1)NCC(O)c1ccc(O)c(C(N)=O)c1` (stereo not shown), the “log D PDMS/w (apparent distribution ratio at the stated pH)” value in data set [2] (pH 3) is -0.855 log units; D and K as the pape; in data set [2] (pH 7.4) it was -0.2383 log units; D and K as the pape.

For the molecule `CCNS(=O)(=O)c1ccccc1C`, in data set [1], the “log K PDMS/w (neutral species)” value was 0.5936 log units; D and K as the pape. Moreover, the “log D PDMS/w (apparent distribution ratio at the stated pH)” value in data set [2] (pH 3) was 0.51 log units; D and K as the pape; in data set [2] (pH 7.4), 0.4188 log units; D and K as the pape; in data set [2] (pH 11.5), 0.4886 log units; D and K as the pape.

On to `CSc1nc(NC2CC2)nc(NC(C)(C)C)n1`, for which the “log K PDMS/w (neutral species)” value in data set [1] was 2.78 log units; D and K as the pape. Further, the “log D PDMS/w (apparent distribution ratio at the stated pH)” value in data set [2] (pH 3) was 2.006 log units; D and K as the pape; in data set [2] (pH 7.4) it was 2.689 log units; D and K as the pape; in data set [2] (pH 11.5), 2.624 log units; D and K as the pape.

On to `COC(=O)Nc1nc2ccc(C(=O)c3ccccc3)cc2[nH]1`, for which the “log D PDMS/w (apparent distribution ratio at the stated pH)” value in data set [2] (pH 3) was 1.465 log units; D and K as the pape; in data set [2] (pH 7.4), 1.732 log units; D and K as the pape; in data set [2] (pH 11.5) it was 1.506 log units; D and K as the pape.

Regarding `CCc1ccc(CCOc2ccc(CC3SC(=O)NC3=O)cc2)nc1` (stereo not shown), the “log D PDMS/w (apparent distribution ratio at the stated pH)” value is 0.7792 log units; D and K as the pape in data set [2] (pH 3); 2.087 log units; D and K as the pape in data set [2] (pH 7.4); -0.02556 log units; D and K as the pape in data set [2] (pH 11.5).

For the molecule `NC12CC3CC(CC(C3)C1)C2`, in data set [1], the “log K PDMS/w (neutral species)” value is 2.916 log units; D and K as the pape.

Turning to `Nc1nc2ccccc2[nH]1`, the “log D PDMS/w (apparent distribution ratio at the stated pH)” value in data set [2] (pH 7.4) was -0.58 log units; D and K as the pape; in data set [2] (pH 11.5) it was -0.51 log units; D and K as the pape.

`CC(C)(c1cc(Br)c(O)c(Br)c1)c1cc(Br)c(O)c(Br)c1`: the “log D PDMS/w (apparent distribution ratio at the stated pH)” value was 4.46 log units; D and K as the pape in data set [2] (pH 3); 2.944 log units; D and K as the pape in data set [2] (pH 7.4).

With `Oc1c(Br)cc(Cl)cc1Cc1cc(Cl)cc(Br)c1O`, the “log D PDMS/w (apparent distribution ratio at the stated pH)” value in data set [2] (pH 3) is 3.724 log units; D and K as the pape; in data set [2] (pH 7.4) it was 2.256 log units; D and K as the pape; in data set [2] (pH 11.5), 0.555 log units; D and K as the pape.

In the case of `O=C(O)Cc1ccccc1Nc1c(Cl)cccc1Cl`, the “log K PDMS/w (neutral species)” value in data set [1] was 1.867 log units; D and K as the pape.

On to `N[C@@H](Cc1cc(I)c(Oc2cc(I)c(O)c(I)c2)c(I)c1)C(=O)O`, for which the “log D PDMS/w (apparent distribution ratio at the stated pH)” value in data set [2] (pH 3) was 0.632 log units; D and K as the pape; in data set [2] (pH 7.4), 0.2933 log units; D and K as the pape.

Turning to `CCc1cccc(C)c1N(C(=O)C(=O)O)C(C)C(=O)O` (stereo not shown), the “log D PDMS/w (apparent distribution ratio at the stated pH)” value in data set [2] (pH 3) is 1.878 log units; D and K as the pape; in data set [2] (pH 7.4) it was 3.06 log units; D and K as the pape; in data set [2] (pH 11.5) it was 3.008 log units; D and K as the pape.
